Data set [1] concerns AMPAR. Briefly: Quantification of AMPAR endocytosis in response to NMDA treatment (cellular ELISA), cortical neurons. To be noted: 50 μM NMDA + 10 μM glycine 30 min; peptide 1 μM, 60 min pretreatment; control 69%. The data set is classed as cell-based, Wistar rat. As to the method: The cortex was dissected from 18 days in utero Wistar embryos and was treated with trypsin-EDTA for 15 min at 37° C. The cells were then washed 3 times and triturated to a single cell suspension. The neurons with glia were then seeded at a density of ˜2.5×10^5 neurons/well in 12 well tissue culture plates coated with poly-D lysine. The cells were then cultured for 24-48 h in plating media (Gibco Neurobasal™, 1% FBS, 2% B-27 supplement, 0.5 mM […], and 25 μM glutamic acid), after which the cells were treated with Neurobasal™ maintenance media (NMM: Gibco Neurobasal™ Media+0.5 mM […], 2% B-27 supplement) with 10 μM 5-Fluoro-2′-deoxyuridine (FDU) to enrich the culture for neurons (−85%). After 24 h-48 h culture in FDU, the cells were maintained on NMM changed every 4 days.
Using cellular ELISA, the amount of intracellular versus extracellular AMPAR expression was measured allowing quantification of AMPAR endocytosis in response to NMDA insult. DIV 12-13 neurons were washed once with room temperature ECS. […] The absorbance at 492 nm was read using a μQuant plate reader (Bio-Tek Instruments Inc.). The data were analyzed by first subtracting the absorbance values for the no-primary controls from the other samples. The percentage AMPAR surface expression was then expressed as a ratio of the non-permeabilized samples to the permeabilized samples. […]
A general note: An ELISA detects its analyte on a solid surface through an enzyme-linked reagent.

Data set [2] is described as follows: Dose tolerance to serial doses, vital parameters monitored. The data set is classed as in vivo, Sprague-Dawley rats. The method, then:
FIG. 15. Dose tolerance curve to serial doses of Tat-GluR2-3Y. Two adult male Sprague-Dawley rats were given serial doses of Tat-GluR2-3Y and the basic vital parameters were monitored.
In order to determine the maximum dose that could be administered without adverse reaction, two male Sprague Dawley rats were injected with serial doses of Tat-GluR2-3Y ranging from 0.5 nmoles/g to 30 nmoles/g and basic vital parameters were monitored. […] Assuming complete dispersion of the peptide in the animal, this dose corresponds roughly to a concentration of 3 μM.

The subject of data set [3] is rats. Briefly: Behavioural sensitization to d-amphetamine (stereotypy scores). The data set is classed as in vivo, rat. The following applies: one hour intravenous pre-treatment. As to the method:
To induces behaviour sensitization to addictive drugs that lead to substance abuse, four separate groups of adult rats were given repetitive injections of damphetamine (2 mg/kg, intraperitoneally (IP)) or saline, every other day for a total of 10 injections. On days 1, 5 and 10 of the injection regimen, the rats were placed in 2-level locomotor boxes for 30 min before the amphetamine injection to habituate to the boxes, and for an additional 2 hours following the injection, and stereotypy scores (drug-induced behaviours) were assessed at 1 minute intervals every 10 minutes for the duration of the 2 hour session. After the 10th injection of d-amphetamine, the rats were given 21 days off, and chronically indwelling catheters were implanted into the jugular vein under anaesthesia.
On day 21, the rats were pretreated with 1.5 nM/grTat-GluR2-3Y, or Tat-GluR2-3A or saline by either IV injection, or intracranial microinjection into the nucleus accumbens (Nac), and returned to their home cages for 60 min. The rats were then placed in the locomotor boxes (observation chambers) for 30 min and then treated with a challenge dose of d-amphetamine (2 mg/kg, IP). Stereotypy scores were then assessed as described (FIG. 12A), Points represent mean stereotypy scores (±S.E.M) for groups of rats over the 2 hour test session. […]

The test system of data set [4] is rats. The following applies: IV 60 min prior to test session; versus saline. As to the method:
A. Rats maintained on a restricted feeding schedule were trained to lever-press for food pellets (45 mg) on a fixed-ratio 2 (FR2) schedule during 2-hour test sessions. Rats received IV injections of saline, GluR2-3A, or GluR2-3Y, in a counterbalanced order, 60 min prior to the test session. […] B. Rats were first trained to self-administer d-amphetamine (0.2 mg/infusion) via a jugular catheter on an FR2 schedule of reinforcement. Once responding in the 3 hour test sessions had stabilized, the rats were then trained on a Progressive Ratio Schedule in which successively more responses were required to obtain each successive reinforcement. […] Once stable Break point values were established, rats received IV injections of saline, GluR2-3A, or GluR2-3Y, in a counterbalanced order, 60 min prior to the test session.

The subject of data set [5] is Sprague-Dawley rats. Briefly: Transient focal ischemia model (MCA occlusion), TUNEL staining and neurological exam. To be noted: 10 min prior to MCA occlusion; 3 nmoles/g. The data set is classed as in vivo, rat. As to the method: The procedure was performed essentially as described previously (70). Briefly, adult male Sprague-Dawley rats between 280 and 320 g (20 h fasted weight) were anesthetized with an inhaled mixture of 4% isofluorane, in 30% oxygen balanced nitrous oxide, and maintained on 1.5% isofluorane. Bronchial secretions were minimized by administering 0.5 mg/kg of atropine intraperitoneally. […] The experimenter was blinded to the identity of the treatment groups for all surgeries and down-stream experiments. Under a dissection microscope, the common carotid artery (CCA), external carotid artery (ECA), and internal carotid artery (ICA) were exposed and dissected. […] Rectal temperature, and blood pressure measured with a tail cuff were measured before treatment, 15 min post injection, 50 min post injection, and 15 min post MCA occlusion. The plasma pH, O2, and CO2 were measured with a Rapidlab™ 348 blood gas analyzer (Bayer Diagnostics) in some animals to ensure that the gas flow rates used were appropriate and yielded reproducible blood gases. […]
At day 1 post MCAo rats were anesthetized with 1.5 mL of 25% urethane and were perfused with 100 mL of 0.9% saline followed by 120 mLs of 4% paraformaldehyde in PBS. […] The slices were scored for number of cells that stained positive for TMR-TUNEL per field of view at 10× magnification. […]

No end group written: not given here.

As for `CN[C@H](CC(=O)O)C(=O)O` [NMDA, N-methyl-D-aspartate], in data set [1], the AMPAR surface expression is 55%.
As for “YGRKKRRQRRRYKEGYNVYGIE [Tat-GluR2-3Y, YGRKKRRQRRR-YKEGYNVYGIE]”, the “behaviour after revival from the dose response curve” value in data set [2] (both animals) is given as “showed no signs of mental depression or other behavioural changes”. The “dose up to which the drug was tolerated” value in data set [2] (serial doses 0.5 to 30 nmoles/g, above: large decline in blood pressure, increase in breathing rate) is around 12 nmol/g. For the same compound, the “doses evoking little response in the vital parameters monitored” value in data set [2] (serial doses, anesthetized rats) was “up to 6 nmoles/g”. Besides, in data set [3], the side effects entry is recorded as “without any notable side effects”. Moreover, in data set [4], the “Break Point measures for drug-reward” value was “no significant differences in the Break Point measures for drug-reward” and the “total number of responses for food reward” value is “no significant differences in total number of responses for food reward”. The “mean arterial blood pressure (MABP) versus saline” value in data set [5] is reported as “significantly lower mean arterial blood pressure”.
